Experimental data: ChEMBL document CHEMBL5537145, “Design, synthesis and evaluation of novel UDCA-aminopyrimidine hybrids as ATX inhibitors for the treatment of hepatic and pulmonary fibrosis” (Eur J Med Chem, 2024)

Target: Autotaxin (Homo sapiens, UniProt Q13822)
Experiment: Inhibition of human ATX in using LPC as substrate by fluorescence based microplate reader assay

Row | Compound | IC50 [nM]
1 | C[C@H](CCC(=O)N1CCc2nc(NCCc3ccccc3Br)ncc2C1)[C@H]1CC[C@H]2[C@@H]3[C@@H](O)C[C@@H]4C[C@H](O)CC[C@]4(C)[C@H]3CC[C@]12C | 92.5
2 | C[C@H](CCC(=O)N1CCc2nc(NCCc3ccc(F)cc3)ncc2C1)[C@H]1CC[C@H]2[C@@H]3[C@@H](O)C[C@@H]4C[C@H](O)CC[C@]4(C)[C@H]3CC[C@]12C | 91.7
3 | COc1ccc(CCNc2ncc3c(n2)CCN(C(=O)CC[C@@H](C)[C@H]2CC[C@H]4[C@@H]5[C@@H](O)C[C@@H]6C[C@H](O)CC[C@]6(C)[C@H]5CC[C@]24C)C3)cc1 | 136
4 | C[C@H](CCC(=O)N1Cc2cnc(NC3Cc4ccccc4C3)nc2C1)[C@H]1CC[C@H]2[C@@H]3[C@@H](O)C[C@@H]4C[C@H](O)CC[C@]4(C)[C@H]3CC[C@]12C | 438
5 | C[C@H](CCC(=O)N1CCc2nc(NCc3ccccc3)ncc2C1)[C@H]1CC[C@H]2[C@@H]3[C@@H](O)C[C@@H]4C[C@H](O)CC[C@]4(C)[C@H]3CC[C@]12C | 342
6 | C[C@H](CCC(=O)N1CCc2nc(NCc3ccc(Br)cc3)ncc2C1)[C@H]1CC[C@H]2[C@@H]3[C@@H](O)C[C@@H]4C[C@H](O)CC[C@]4(C)[C@H]3CC[C@]12C | 243

Now those with a lower IC50, led by results:

Row | IC50 [nM] | Compound
7 | 46.3 | C[C@H](CCC(=O)N1CCc2nc(NCCc3ccc(Br)cc3)ncc2C1)[C@H]1CC[C@H]2[C@@H]3[C@@H](O)C[C@@H]4C[C@H](O)CC[C@]4(C)[C@H]3CC[C@]12C
8 | 35.6 | C[C@H](CCC(=O)N1CCc2nc(NCCc3ccncc3)ncc2C1)[C@H]1CC[C@H]2[C@@H]3[C@@H](O)C[C@@H]4C[C@H](O)CC[C@]4(C)[C@H]3CC[C@]12C
9 | 27.7 | C[C@H](CCC(=O)N1CCc2nc(NCCc3cccc(Br)c3)ncc2C1)[C@H]1CC[C@H]2[C@@H]3[C@@H](O)C[C@@H]4C[C@H](O)CC[C@]4(C)[C@H]3CC[C@]12C
10 | 15.6 | C[C@H](CCC(=O)N1CCc2nc(NCCc3ccccc3F)ncc2C1)[C@H]1CC[C@H]2[C@@H]3[C@@H](O)C[C@@H]4C[C@H](O)CC[C@]4(C)[C@H]3CC[C@]12C
11 | 15.4 | C[C@H](CCC(=O)N1CCc2nc(NC3Cc4ccc(Br)cc4C3)ncc2C1)[C@H]1CC[C@H]2[C@@H]3[C@@H](O)C[C@@H]4C[C@H](O)CC[C@]4(C)[C@H]3CC[C@]12C (stereo partly specified)
